Results as given in patent US20070078263A1, “BIARYL SUBSTITUTED HETEROCYCLE INHIBITORS OF LTA4H FOR TREATING INFLAMMATION” (deCODE Chemistry, Inc., priority 2005, published 2007).
Where a name gives a salt, the structure may show the parent alone.

target: T1, human LTA4 hydrolase (Homo sapiens, UniProt P09960); test: In vitro assay testing inhibitory activity against purified recombinant human LTA4 hydrolase (LTB4 formed, LC-MS/MS); type: biochemical; conditions: not given;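 note: 200 nM enzyme preincubated 10 min at room temperature with serial inhibitor dilutions in pH 8.0 Tris buffer with BSA and 10% DMSO, then 2 µM LTA4 added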
T1 construct: A human LTA4 hydrolase full-length cDNA clone (NM 000895) was purchased; His tag (6xHis of vector pDEST17); made in house; host or cells: Escherichia coli BL21-AI
T1 sequence (P09960 1-611): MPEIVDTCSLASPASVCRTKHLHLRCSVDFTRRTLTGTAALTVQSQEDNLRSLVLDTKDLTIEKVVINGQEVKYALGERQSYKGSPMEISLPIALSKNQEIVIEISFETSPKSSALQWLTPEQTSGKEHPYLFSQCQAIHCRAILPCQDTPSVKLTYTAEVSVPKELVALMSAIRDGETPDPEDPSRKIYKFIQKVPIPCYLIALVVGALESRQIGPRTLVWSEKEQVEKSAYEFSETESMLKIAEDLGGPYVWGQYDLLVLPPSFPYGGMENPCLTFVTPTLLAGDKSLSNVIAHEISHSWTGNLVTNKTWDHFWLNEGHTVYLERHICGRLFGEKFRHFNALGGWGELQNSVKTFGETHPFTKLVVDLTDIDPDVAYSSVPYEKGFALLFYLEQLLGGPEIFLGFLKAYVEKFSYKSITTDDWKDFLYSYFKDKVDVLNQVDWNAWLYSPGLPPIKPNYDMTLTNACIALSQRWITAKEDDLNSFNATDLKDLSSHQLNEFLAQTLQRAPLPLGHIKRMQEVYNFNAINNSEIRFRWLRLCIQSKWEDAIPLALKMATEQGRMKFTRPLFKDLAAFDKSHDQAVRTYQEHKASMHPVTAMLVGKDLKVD

c1ccc(CNc2ccc(OC[C@H]3CCCN3)cc2)cc1 [Example 48, Benzyl-[4-((R)-1-pyrrolidin-2-ylmethoxy)-phenyl]-amine] and O=C(O)CCCN1CCCC[C@@H]1COc1ccc(Oc2ccc(Cl)cc2)cc1 [Example 81, 4-{(R)-2-[4-(4-Chloro-phenoxy)-phenoxymethyl]-piperidin-1-yl}-butyric acid hydrochloride] cannot be ordered by IC50: < 5 µM for the first, < 5 µM for the second.

same assay, conditions: recombinant human LTA4 hydrolase 200 nM, LTA4 2 μM; read-out: AvgIC50

c1ccc(Cc2ccc(OCCC3CCCCN3)cc2)cc1 (racemic) [Example 72, (+/−)-2-[(4-Benzylphenoxy)ethyl]-piperidine hydrochloride] and c1ccc(Cc2ccc(OCC[C@@H]3CCCCN3)cc2)cc1 [Example 71, (S)-2-[(4-Benzylphenoxy)ethyl]-piperidine hydrochloride] cannot be ordered by IC50: < 5 µM for the first, < 5 µM for the second.

Clc1ccc(Cc2ccc(OCC3CCCCN3)cc2)cc1 (stereo in doubt) [Example 165, (S)-2-[4-(4-Chlorobenzyl)-phenoxymethyl]-piperidine hydrochloride] and c1cc(-c2ccc(Cc3ccc(OC[C@H]4CCCCN4)cc3)cc2)cs1 [Example 78, (R)-2-[4-(4-Thiophen-3-yl-benzyl)-phenoxymethyl]-piperidine hydrochloride] cannot be ordered by IC50: < 5 µM for the first, < 5 µM for the second.

Clc1ccc(Cc2ccc(OCC3CCCCN3)cc2)cc1 (stereo in doubt) [Example 166, (R)-2-[4-(4-Chlorobenzyl)-phenoxymethyl]-piperidine hydrochloride] and O=C(O)CCCN1CCC[C@@H]1COc1ccc(Cc2ccc(Cl)cc2)cc1 [Example 65, 4-{(R)-2-[4-(4-Chloro-benzyl)-phenoxymethyl]-pyrrolidin-1-yl}-butyric acid] cannot be ordered by IC50: < 5 µM for the first, < 5 µM for the second.

c1ccc(Cc2ccc(OC[C@H]3CCCN3Cc3ccncc3)cc2)cc1 [Example 6, 4-[(R)-2-(4-benzyl-phenoxymethyl)-pyrrolidin-1-ylmethyl]-pyridine] and O=C(O)CN1CCC[C@H]1COc1ccc(Cc2ccccc2)cc1 [Example 36, [(S)-2-(4-Benzyl-phenoxymethyl)-pyrrolidin-1-yl]-acetic acid TFA salt] cannot be ordered by IC50: < 5 µM for the first, < 5 µM for the second.

Compared with COC(=O)CCN1CCC[C@@H]1COc1ccc(Cc2ccccc2)cc1 [Example 7, 3-[(R)-2-(4-benzyl-phenoxymethyl)-pyrrolidin-1-yl]-propionic acid methyl ester], O=C(O)CCN1CCC[C@H]1COc1ccc(Cc2ccccc2)cc1 [Example 34, 3-[(S)-2-(4-Benzyl-phenoxymethyl)-pyrrolidin-1-yl]-propionic acid HCl salt] is higher in IC50: < 5 µM for the first, 5 to 20 µM for the second. The first is the more potent here.

FC(F)(F)Oc1ccc(Oc2ccc(OC[C@H]3CCCN3)cc2)cc1 [Example 11, (R)-2-[4-(4-Trifluoromethoxy-phenoxy)-phenoxymethyl]-pyrrolidine hydrochloride] and FC(F)(F)c1ccc(Oc2ccc(OC[C@@H]3CCCN3)cc2)cc1 [Example 24, (S)-2-[4-(4-trifluoromethyl-phenoxy)-phenoxymethyl]-pyrrolidine] cannot be ordered by IC50: < 5 µM for the first, < 5 µM for the second.

c1ccc(-c2ccc(Oc3ccc(OC[C@H]4CCCN4)cc3)cc2)cc1 [Example 12, (R)-2-[4-(Biphenyl-4-yloxy)-phenoxymethyl]-pyrrolidine hydrochloride] and c1ccc(Oc2ccc(OC[C@H]3CCCN3)cc2)cc1 [Example 45, (R)-2-(4-Phenoxy-phenoxymethyl)-pyrrolidine] cannot be ordered by IC50: < 5 µM for the first, < 5 µM for the second.

Cc1ccc(Oc2ccc(OC[C@H]3CCCN3)cc2)cc1 [Example 14, (R)-2-(4-p-Tolyloxy-phenoxymethyl)-pyrrolidine hydrochloride] and CC(=O)c1ccc(Oc2ccc(OC[C@H]3CCCN3)cc2)cc1 [Example 17, 1-{4-[4-((R)-1-Pyrrolidin-2-ylmethoxy)-phenoxy]-phenyl}-ethanone hydrochloride] cannot be ordered by IC50: < 5 µM for the first, < 5 µM for the second.

N#Cc1ccc(Oc2ccc(OC[C@H]3CCCN3)cc2)cc1 [Example 15, 4-[4-((R)-1-Pyrrolidin-2-ylmethoxy)-phenoxy]-benzonitrile hydrochloride] and c1ncc(-c2ccc(Oc3ccc(OC[C@@H]4CCCN4)cc3)cc2)o1 [Example 89, 5-{4-[4-((S)-1-Pyrrolidin-2-ylmethoxy)-phenoxy]-phenyl}-oxazole] cannot be ordered by IC50: < 5 µM for the first, < 5 µM for the second.

O=C(O)CN1CCC[C@@H]1COc1ccc(Oc2ccc(Cl)cc2)cc1 [Example 18, {(R)-2-[4-(4-Chloro-phenoxy)-phenoxymethyl]-pyrrolidin-1-yl}-acetic acid hydrochloride] and O=C(O)CN1CCCC[C@H]1COc1ccc(Oc2ccc(Cl)cc2)cc1 [Example 62, {(S)-2-[4-(4-Chloro-phenoxy)-phenoxymethyl]-piperidin-1-yl}-acetic acid hydrochloride] cannot be ordered by IC50: < 5 µM for the first, < 5 µM for the second.

O=C(O)CCCN1CCC[C@H]1COc1ccc(Oc2ccc(C(F)(F)F)cc2)cc1 [Example 25] and O=C(O)CCN1CCC[C@H]1COc1ccc(Oc2ccc(C(F)(F)F)cc2)cc1 [Example 26, (S)-2-[4-(4-trifluoromethyl-phenoxy)-phenoxymethyl]-pyrrolidine-1-yl}propionic acid sodium salt] cannot be ordered by IC50: < 5 µM for the first, < 5 µM for the second.

O=C(O)CN1CCC[C@@H]1COc1ccc(Oc2ccc(C(F)(F)F)cc2)cc1 [Example 28, (R)-2-[4-(4-trifluoromethyl-phenoxy)-phenoxymethyl]-pyrrolidine-1-yl)acetic acid sodium salt] and O=C(O)CCN1CCC[C@@H]1COc1ccc(Oc2ccc(C(F)(F)F)cc2)cc1 [Example 29, (R)-2-[4-(4-trifluoromethyl-phenoxy)-phenoxymethyl]-pyrrolidine-1-yl}propionic acid sodium salt] cannot be ordered by IC50: < 5 µM for the first, < 5 µM for the second.

Cc1noc(CCCN2CCC[C@@H]2COc2ccc(Cc3ccccc3)cc2)n1 [Example 31] and Cc1noc(CCCN2CCC[C@H]2COc2ccc(Cc3ccccc3)cc2)n1 [Example 32] cannot be ordered by IC50: < 5 µM for the first, < 5 µM for the second.

OCCCCN1CCC[C@H]1COc1ccc(Cc2ccccc2)cc1 [Example 33, 4-[(S)-2-(4-Benzyl-phenoxymethyl)-pyrrolidin-1-yl]-butan-1-ol] and O=C1CC[C@@H](COc2ccc(Cc3ccccc3)cc2)N1 [Example 83, (S) 5-(4-Benzyl-phenoxymethyl)-pyrrolidin-2-one hydrochloride salt] cannot be ordered by IC50: < 5 µM for the first, < 5 µM for the second.

CC(=O)NCCCN1CCC[C@H]1COc1ccc(Oc2ccc(Cl)cc2)cc1 [Example 38, N-(3-{(S)-2-[4-(4-Chloro-phenoxy)-phenoxymethyl]-pyrrolidin-1-yl}-propyl)-acetamide HCl] and COC(=O)CCN1CCCC[C@H]1COc1ccc(Oc2ccc(Cl)cc2)cc1 [Example 58, 3-{(S)-2-[4-(4-Chloro-phenoxy)-phenoxymethyl]-piperidin-1-yl}-propionic acid methyl ester] cannot be ordered by IC50: < 5 µM for the first, < 5 µM for the second.

c1ccc(Cc2ccc(NC[C@H]3CCCN3)cc2)cc1 [Example 41, (4-Benzyl-phenyl)-(R)-1-pyrrolidin-2-ylmethyl-anine] and c1ccc(Nc2ccc(OC[C@H]3CCCN3)cc2)cc1 [Example 44, Phenyl-[4-((R)-1-pyrrolidin-2-ylmethoxy)-phenyl]-amine] cannot be ordered by IC50: < 5 µM for the first, < 5 µM for the second.

c1ccc(Oc2ccc(SC[C@H]3CCCN3)cc2)cc1 [Example 43, (R)-2-(4-Phenoxy-phenylsulfanylmethyl)-pyrrolidine] and c1ccc(Oc2ccc(OCC3CNCCN3)cc2)cc1 (stereo not drawn) [Example 76, dihydrochloride] cannot be ordered by IC50: < 5 µM for the first, < 5 µM for the second.

O=C(c1ccccc1)c1ccc(OC[C@H]2CCCN2)cc1 [Example 46, Phenyl-[4-((R)-1-pyrrolidin-2-ylmethoxy)-phenyl]-methanone] and O=C(Cc1ccccc1)c1ccc(OC[C@H]2CCCN2)cc1 [Example 47, 2-Phenyl-1-[4-((R)-1-pyrrolidin-2-ylmethoxy)-phenyl]-ethanone] fall in the same range of IC50: 5 to 20 µM for the first, 5 to 20 µM for the second.

O=C(O)CCN1CCCC[C@H]1COc1ccc(Oc2ccc(Cl)cc2)cc1 [Example 59, 3-{(S)-2-[4-(4-Chloro-phenoxy)-phenoxymethyl]-piperidin-1-yl}-propionic acid hydrochloride] and Clc1ccc(Oc2ccc(OC[C@@H]3CCCCN3Cc3ncno3)cc2)cc1 [Example 63, (S)-2-[4-(4-Chloro-phenoxy)-phenoxymethyl]-1-[1,2,4]oxadiazol-5-ylmethyl-piperidine hydrochloride] cannot be ordered by IC50: < 5 µM for the first, < 5 µM for the second.

First: c1ccc(CN2CCNC(COc3ccc(Oc4ccccc4)cc3)C2)cc1 (stereo not drawn) [Example 75, dihydrochloride]
Second: c1ccc(CO[C@H]2CN[C@H](COc3ccc(Oc4ccccc4)cc3)C2)cc1 [Example 85]
The IC50 of the first is lower: < 5 µM for the first, 5 to 20 µM for the second.

O=C1CC[C@H](COc2ccc(Cc3ccccc3)cc2)N1 [Example 84, (R) 5-(4-Benzyl-phenoxymethyl)-pyrrolidin-2-one] and O[C@H]1CN[C@H](COc2ccc(Oc3ccccc3)cc2)C1 [Example 86, (3R,5S)-5-(4-Phenoxy-phenoxymethyl)-pyrrolidin-3-ol] cannot be ordered by IC50: < 5 µM for the first, < 5 µM for the second.

Clc1ccc(COc2ccc(OC[C@H]3CCCN3)cc2)c(Cl)c1 [Example 91, (R)-2-[4-(2,4-Dichloro-benzyloxy)-phenoxymethyl]-pyrrolidine hydrogen chloride salt] was tested, and the IC50 was 5 to 20 µM.
